Among the data in patent US11530226B2, “Azepane inhibitors of menin-MLL interaction” (Janssen Pharmaceutica NV, priority 2016, dated 2022) are IC50 values, retold here.

One test deals with MV-4-1 1 cells (MLL-AF4). The test is described as follows: Proliferation assay (spheroid-like growth, 8 d, live-cell imaging), MV-4-11. The note with it: Homo sapiens, MV4-11, 192 h, MV-4-11 cells, absolute IC50 from AUC of confluence, read-out: (3) Spheroid assay MV-4-11 (IC50 (μM)). It is filed as cell-based, human. How it is done: The anti-proliferative effect of menin/MLL protein/protein interaction inhibitor test compounds was assessed in human leukemia cell lines. The cell lines MV-4-1 1 and MOLM14 harbor MEL translocations and express the MEL fusion proteins MLL-AF4 and MLL-AF9, respectively, as well as the wildtype protein from the second allele. […] K562 was used as a control cell line containing two MLL wildtype alleles in order to exclude compounds that display general cytotoxic effects.
MV-4-1 1 and MOLM14 were cultured in RPMI-1640 (Sigma Aldrich) supplemented with 10% fetal bovine serum (HyClone), 2 mM L-glutamine (Sigma Aldrich) and 50 μg/ml gentamycin (Gibco). K562 were propagated in RPMI-1640 (Sigma Aldrich) supplemented with 20% fetal bovine serum (HyClone), 2 mM L-glutamine (Sigma Aldrich) and 50 μg/ml gentamycin (Gibco).
In order to assess the anti-proliferative effects, 1,500 MV-4-1 1, 300 MOLM14 or 750 K562 cells were seeded in 200 μl media per well in 96-well round bottom, ultra-low attachment plates (Costar, catalogue number 7007). Cell seeding numbers were chosen based on growth curves to ensure linear growth throughout the experiment. Test compounds were added at different concentrations and the DMSO content was normalized to 0.3%>. Cells were incubated for 8d at 37° C. and 5% C02. Spheroid like growth was monitored in real-time by live-cell imaging (IncuCyteZOOM, Essenbio, 4× objective) acquiring one image every four hours for 8d. Confluence (%) as a measure of spheroid size was determined using an integrated analysis tool.
In order to determine the cumulative effect of the test compounds over time, the area under the curve (AUC) in a plot of confluence against time was calculated. Confluence at the beginning of the experiment (t=0) was used as baseline for the AUC calculation.
Absolute IC50 values were calculated according to the following procedure: % Control=(AUC sample/AUC control)*100 AUC control=mean AUC of control values(cells without compound/DMSO as vehicle control)
A non-linear curve fit was applied using the least squares (ordinary) fit method to the plot of % control versus compound concentration. Based on this, the absolute IC50 value (half maximal inhibitory concentration of the test compound causing an anti-proliferative effect of 50% relative to the vehicle control) was calculated.

Test [1] concerns the target T1, terbium chelate-labeled menin / FITC-MBM1 peptide (Menin/MLL) (Homo sapiens, UniProt O00255, T541A).
T1 construct: Menin (a. a. l-610-6×his tag) was labeled with terbium cryptate as follows
T1 sequence (O00255 with tags, fused parts or gaps T541A): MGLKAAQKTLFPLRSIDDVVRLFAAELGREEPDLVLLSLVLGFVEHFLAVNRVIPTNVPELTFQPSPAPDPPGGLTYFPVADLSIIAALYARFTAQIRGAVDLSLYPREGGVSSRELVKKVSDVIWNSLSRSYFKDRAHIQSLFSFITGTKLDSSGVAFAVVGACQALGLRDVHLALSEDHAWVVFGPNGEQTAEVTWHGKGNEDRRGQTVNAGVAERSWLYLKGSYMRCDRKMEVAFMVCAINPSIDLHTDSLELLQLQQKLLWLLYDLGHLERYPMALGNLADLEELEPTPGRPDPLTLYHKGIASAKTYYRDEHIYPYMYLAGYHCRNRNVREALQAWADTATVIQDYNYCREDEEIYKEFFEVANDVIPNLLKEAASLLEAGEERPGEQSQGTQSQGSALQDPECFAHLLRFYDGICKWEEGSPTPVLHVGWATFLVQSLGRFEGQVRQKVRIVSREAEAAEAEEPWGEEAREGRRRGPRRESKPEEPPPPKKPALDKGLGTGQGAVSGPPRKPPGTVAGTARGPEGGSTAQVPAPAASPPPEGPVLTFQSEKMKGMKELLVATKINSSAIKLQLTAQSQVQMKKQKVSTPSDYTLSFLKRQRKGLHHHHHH
The experiment in a line: Menin/MLL homogenous time-resolved fluorescence (HTRF) assay. The note with it: read-out: (2) Menin HTRF assay (IC50 (nM)). It is filed as binding. As for the experimental part: 2) Menin/MLL Homogenous Time-Resolved Fluorescence (HTRF) Assay
To an untreated, white 384-well microtiter plate was added 40 nL 200× test compound in DMSO and 4 μL 2× terbium chelate-labeled menin (vide infra for preparation) in assay buffer (40 mM Tris .HCl, pH 7.5, 50 mM NaCl, 1 mM DTT and 0.05% Pluronic F-127). After incubation of test compound and terbium chelate-labeled menin for 5 min at ambient temperature, 4 μL 2×FITC-MBM1 peptide (FITC-P-alanine-SARWRFPARPGT-NH2) in assay buffer was added, the microtiter plate centrifuged at 1000 rpm for 1 min and the assay mixtures incubated for 15 min at ambient temperature. The relative amount of menin ⋅FITC-MBM1 complex present in an assay mixture is determined by measuring the homogenous time-resolved fluorescence (HTRF) of the terbium/FITC donor/acceptor fluorphore pair using a BMG Pherastar plate reader (ex. 337 nm/terbium cm. 490 nm/FITC cm. 520 nm) at ambient temperature. The degree of fluorescence resonance energy transfer (the HTRF value) is expressed as the ratio of the fluorescence emission intensities of the FITC and terbium fluorophores (P^m 520 nm//F^em 490 nm). The final concentrations of reagents in the binding assay are 100 pM terbium chelate-labeled menin, 75 nM FITC-MBM1 peptide and 0.5%) DMSO in assay buffer. Dose-response titrations of test compounds are conducted using an 11 point, three-fold serial dilution scheme, starting typically at 25 μM.
Compound potencies were determined by first calculating % inhibition at each compound concentration according to equation 1: % inhibition=((HC−LC)−(HTRF^compound−LC))/(HC−LC))*100 (Eqn 1)
Where LC and HC are the HTRF values of the assay in the presence or absence of a saturating concentration of a compound that competes with FITC-MBM1 for binding to menin, and HTRF^compound is the measured HTRF value in the presence of the test compound. HC and LC HTRF values represent an average of at least 16 replicates per plate.
Where Bottom and Top are the lower and upper asymptotes of the dose-response curve, respectively, IC50 is the concentration of compound that yields 50% inhibition of signal and h is the Hill coefficient.
Preparation of Terbium cryptate labeling of Menin: Menin (a. a. l-610-6×his tag) was labeled with terbium cryptate as follows. 2 mg of Menin was buffer exchanged into 1× phosphate buffered saline. 16 uM Menin was incubated with 4-fold molar excess NHS-terbium cryptate (Cisbio Bioassays, Bedford, Mass.) for 2 hours at room temperature. The labeled protein was purified away from free label by running the reaction over a Superdex 200 Increase 10/300 GL column at 0.75 ml/min. Peak fractions were collected, aliquoted and frozen at −80° C.

Usually IC50 stands for the midpoint of a concentration-inhibition curve. As to `Cn1cc(CNC2CCCN(c3ncnc4sc(CC(F)(F)F)cc34)CC2)cn1` (racemic) [Compound 11], the half-inhibitory concentration (IC50) in the test on MV-4-1 1 cells (MLL-AF4) turned out to be 2 µM; in test [1], 69 nM. `Cc1ccc(CN[C@@H]2CCCN(c3ncnc4sc(CC(F)(F)F)cc34)CC2)c(C)c1` (single isomer, unassigned) [Compound 9A]: the IC50 in test [1] was found to be 548 nM.

Take `Cn1cc(CNC2CCCN(c3ncnc4sc(CC(F)(F)F)cc34)CC2)cn1` (single isomer, unassigned) [Compound 11B]: in test [1], the IC50 worked out at 1470 nM. As to `CC(C)N[C@@H]1CCCN(c2ncnc3sc(CC(F)(F)F)cc23)CC1` (single isomer, unassigned) [Compound 13A], the IC50 in test [1] turned out to be 5270 nM. Regarding `CC(C)NC1CCCN(c2ncnc3sc(CC(F)(F)F)cc23)CC1` (single isomer, unassigned) [Compound 13B], the IC50 in test [1] is 2460 nM. Take `FC(F)(F)Cc1cc2c(N3CCC[C@@H](NCc4cn[nH]c4)CC3)ncnc2s1` (single isomer, unassigned) [Compound 26]: in test [1], the half-inhibitory concentration (IC50) is 27 nM. Still for that read-out and setting: the value for `CC(C)[C@H](N[C@H]1CCCN(c2ncnc3sc(CC(F)(F)F)cc23)CC1)C1CNC1` (single isomer, unassigned) [Compound 32] was 758 nM; that for `CC(C)[C@@H](N[C@@H]1CCCN(c2ncnc3sc(CC(F)(F)F)cc23)CC1)C1CNC1` (single isomer, unassigned) [Compound 35] was 1010 nM.

As for `C[C@@H](N[C@@H]1CCCN(c2ncnc3sc(CC(F)(F)F)cc23)CC1)c1cnn(C)c1` (single isomer, unassigned) [Compound 54A], the IC50 in test [1] stood at 11900 nM. The same measure, in the same setting: as for `C[C@H](N[C@@H]1CCCN(c2ncnc3sc(CC(F)(F)F)cc23)CC1)c1cnn(C)c1` (single isomer, unassigned) [Compound 54B], the figure is 13200 nM; as for `C[C@H](N[C@H]1CCCN(c2ncnc3sc(CC(F)(F)F)cc23)CC1)c1cnn(C)c1` (single isomer, unassigned) [Compound 54C], 1490 nM. Consider `C[C@@H](N[C@H]1CCCN(c2ncnc3sc(CC(F)(F)F)cc23)CC1)c1cnn(C)c1` (single isomer, unassigned) [Compound 54D], for which the IC50 in test [1] turned out to be 6760 nM.

With `CC(C)CN(Cc1cnn(C)c1)[C@@H]1CCCN(c2ncnc3sc(CC(F)(F)F)cc23)CC1` (single isomer, unassigned) [Compound 58A], in test [1], the IC50 worked out at 1550 nM. Consider `CC(C)CN(Cc1cnn(C)c1)[C@H]1CCCN(c2ncnc3sc(CC(F)(F)F)cc23)CC1` (single isomer, unassigned) [Compound 58B], for which, in test [1], the IC50 came out at 888 nM. Still for that read-out and setting: the value for `FC(F)(F)Cc1cc2c(N3CCC[C@@H](N(Cc4ccccc4)C4COC4)CC3)ncnc2s1` (single isomer, unassigned) [Compound 59A] was 709 nM. Still for that read-out and setting: the value for `FC(F)(F)Cc1cc2c(N3CCC[C@H](N(Cc4ccccc4)C4COC4)CC3)ncnc2s1` (single isomer, unassigned) [Compound 59B] was 1150 nM. The same measure, in the same setting: the value for `Cn1ncc2c1CCC[C@H]2N[C@@H]1CCCN(c2ncnc3sc(CC(F)(F)F)cc23)CC1` (single isomer, unassigned) [Compound 65A] was 3500 nM; that for `Cn1cc2c(n1)CCC[C@H]2N[C@@H]1CCCN(c2ncnc3sc(CC(F)(F)F)cc23)CC1` (single isomer, unassigned) [Compound 66A] was 7440 nM; that for `Cn1cc2c(n1)CCC[C@H]2N[C@H]1CCCN(c2ncnc3sc(CC(F)(F)F)cc23)CC1` (single isomer, unassigned) [Compound 66C] was 5380 nM. `Cn1cc2c(n1)CCC[C@@H]2N[C@H]1CCCN(c2ncnc3sc(CC(F)(F)F)cc23)CC1` (single isomer, unassigned) [Compound 66D]: the IC50 in test [1] was determined as 880 nM. On the same count and under the same terms, as for `C[C@@H]1CCN(c2ncnc3sc(CC(F)(F)F)cc23)CC[C@@H]1NCc1ccccc1` (single isomer, unassigned) [Compound 68B], the figure is 522 nM; as for `O=C(NC1CCCN(c2ncnc3sc(CC(F)(F)F)cc23)CC1)[C@H]1CC2(CC2)CN1` (stereo partly shown) [Compound 10A], 1530 nM; as for `CC(C)[C@@H](CO)N[C@@H]1CCCN(c2ncnc3sc(CC(F)(F)F)cc23)CC1` [Compound 14A], 4470 nM.

On to `CC(C)[C@@H](CO)N[C@H]1CCCN(c2ncnc3sc(CC(F)(F)F)cc23)CC1` [Compound 14B], for which the IC50 in test [1] is 767 nM. The same measure, in the same setting: as for `CNCCN(Cc1cnn(C)c1)C1CCCN(c2ncnc3sc(CC(F)(F)F)cc23)CC1` (stereo not shown) [Compound 39], the figure is 852 nM. Same read-out and setting: the value for `CNC(=O)[C@@H](NC1CCCN(c2ncnc3sc(CC(F)(F)F)cc23)CC1)C(C)C` (stereo partly shown) [Compound 52] was 20800 nM; that for `FC(F)(F)Cc1cc2c(N3CCCC(NCC4CCOCC4)CC3)ncnc2s1` (stereo not shown) [Compound 55] was 227 nM; that for `CN(C)CCCNC1CCCN(c2ncnc3sc(CC(F)(F)F)cc23)CC1` (stereo not shown) [Compound 56] was 724 nM. On the same count and under the same terms, the value for `CN(C)CCCCN(Cc1cnn(C)c1)C1CCCN(c2ncnc3sc(CC(F)(F)F)cc23)CC1` (stereo not shown) [Compound 61] was 181 nM; that for `CN(C)CCCN(Cc1cnn(C)c1)C1CCCN(c2ncnc3sc(CC(F)(F)F)cc23)CC1` (stereo not shown) [Compound 63] was 369 nM. Consider `Cn1ncc2c1CCC[C@H]2N[C@H]1CCCN(c2ncnc3sc(CC(F)(F)F)cc23)CC1` [Compound 65C], for which the IC50 in test [1] came to 686 nM. In the case of `Cn1ncc2c1CCC[C@@H]2N[C@H]1CCCN(c2ncnc3sc(CC(F)(F)F)cc23)CC1` [Compound 65D], in test [1], the IC50 turned out to be 8690 nM. Still for that read-out and setting: the value for `FC(F)(F)Cc1cc2c(N3CCCC(NCc4ccncn4)CC3)ncnc2s1` (stereo not shown) [Compound 69] was 598 nM.
